Values quoted from earlier work in patent US20100158923A1, “REDUCING POLYGLUTAMINE-BASED AGGREGATION” (Northwestern University, priority 2003, published 2010).
Values belong to the compound of their own block, whether it stands above or below them.

Tests used:
[1] = target: human SST2 (Homo sapiens, UniProt P30874)
[2] = test system: GH release; settings: administered orally and parenterally
[3] = test system: IGF-1 levels; settings: administered subcutaneously
[4] = test system: GH secretion

Chain of human SST2 (P30874 whole entry): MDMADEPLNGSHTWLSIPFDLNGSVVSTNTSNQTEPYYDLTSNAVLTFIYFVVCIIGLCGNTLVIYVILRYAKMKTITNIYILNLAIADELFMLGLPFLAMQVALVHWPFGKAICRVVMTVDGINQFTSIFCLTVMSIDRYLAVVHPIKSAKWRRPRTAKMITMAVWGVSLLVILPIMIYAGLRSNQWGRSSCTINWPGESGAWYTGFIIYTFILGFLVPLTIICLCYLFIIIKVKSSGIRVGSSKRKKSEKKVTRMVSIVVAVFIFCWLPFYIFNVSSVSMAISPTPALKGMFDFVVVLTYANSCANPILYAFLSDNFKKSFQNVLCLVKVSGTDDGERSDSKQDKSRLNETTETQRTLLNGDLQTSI

selectivity ([1]; SST2 binding, comparison receptors not stated): highly selective | Kd ([1]; binding to human SST2, read-out: apparent Kd): 0.01 nM
Compound: CC(C)(C)OC(=O)[C@H](CCCCN)NC(=O)[C@@H](Cc1c[nH]c2ccccc12)NC(=O)N1CCC(n2c(=O)[nH]c3ccccc32)CC1 [L-054,522]

Compound: CC(C)(N)C(=O)N[C@H](COCc1ccccc1)C(=O)N1CCC2(CC1)CN(S(C)(=O)=O)c1ccccc12 [MK-0677]
GH-releasing effects [2]: potent GH-releasing effects

Compound: Pegvisomant: modified human GH in which nine amino acids have been replaced, with polyethylene glycol polymers; GH receptor antagonist
effect on IGF-1 levels [3]: dose dependent reduction

Compound: [N-acetyl-Tyr^1,D-Arg^2] GHRH^1-29NH2 [standard GHRH antagonist]
effect on human GH secretory response to exogenous GHRH ([4]; response to exogenous GHRH): inhibits | effect on spontaneous GH secretion ([4]; spontaneous GH secretion): lowers
